These results are taken from PMC10285648, “iTAG an optimized IMiD-induced degron for targeted protein degradation in human and murine cells” (iScience, 2023).

Peptide text beside a SMILES is read from it. * marks the point of attachment. Cbz = O=C(OCc1ccccc1)*

Assay [1] deals with N-terminally tagged cMYC, RBM39, BRD4 (Flag-HA-DCD23 or Flag-HA-FKBP12^[F36V]). In words: Western blotting, iTAG versus dTAG fused proteins in SUM159. The class given is cell-based, human. Here is the method:
The fusion constructs were stably expressed in SUM159 cells and loss of protein was determined by western blotting.
(§1) The protein lysates were probed for HA using western blotting. […] The protein lysates were probed for HA using western blotting. […] Median EGFP intensity was measured in each condition using flow cytometry. (3 independent experiments, represented as mean ± SD).
The dTAG system has also been adapted to direct targets to the E3 CRL2^VHL using the PROTAC dTAG^V-1^16. […] We evaluated the degradation N-terminally tagged cMYC and RBM39 dTAG^V-1, we included BRD4 as a control as it was reported to be a well degraded target in the initial dTAG optimization (Figure 3C).[15]
(§2) For the pHAGE-PGK constructs: DCD23, SuperDegron and FKBP12^F36V were separately cloned into a pHAGE-PGK DEST backbone. cDNA encoding the indicated protein was then cloned from pENTR221 into the pHAGE-PGK-DCD23, pHAGE-PGK-SuperDegron or pHAGE-PGK-FKBPF36V DEST vector using Gateway cloning. SUM159 cells were transduced with the indicated lentivirus and selected with puromycin.
Cells were lysed with SDS lysis buffer (2% SDS, 10% Glycerol, 50mM Tris pH 6.8) and boiled at 95°C for 30min. Protein concentration was measured using Pierce BCA Protein Assay Kit (ThermoFischer) following manufacturer’s recommendations. Samples were ran in NuPAGETM 10% Bis-Tris Midi electrophoresis gels (Invitrogen) using NuPAGETM MES SDS running buffer (ThermoFischer Scientific). Proteins were subsequently transferred to an Immobilon-P polyvinylidene Difluoride (PVDF) membrane (Merck Millipore) using the wet-transfer method (Bio-Rad) in a transfer buffer consisting of 20% (v/v) methanol and 10% protein electrophoresis buffer (24.77 mM Tris and 0.192 M glycine).
(§3) For western blotting membranes were blocked in a solution of 5% (w/v) bovine serum albumin (BSA; Sigma-Aldrich) dissolved in TBS-0.1% Tween 20 (Sigma-Aldrich) then incubated at 4°C overnight with the primary antibodies diluted in 5% (w/v) BSA/TBS-T. The membranes where then washed and incubated with anti-mouse and/or anti-rabbit secondary antibodies (LI-COR Biosciences) for 2h at RT diluted in 5% (w/v) BSA/TBS-T then washed and imaged using the LI-COR Odyssey (LI-COR Biosciences). Images were analyzed using Image Studio Lite software (LI-COR Biosciences).
Background: Immunoblotting shows a protein as a band on a membrane.

Assay [2] relates to cMYC-EGFP-DCD19. The assay is described as follows: Flow cytometry of EGFP signal, cMYC-EGFP-DCD19 in HMEC. The class given is cell-based, human. The settings on record: 10uM, 4h. From the text: (§4) To systematically delineate the optimal DCD/degrader combination for targeted protein degradation, we undertook a matrix approach evaluating all 23 DCD tags against 6 small molecule degraders. […] To control for any potential off-target effects of the IMiD/CeLMOD agents that could indirectly affect the target of interest, we designed controls in which the specific DCD and the EGFP sequences were interspaced by a P2A ribosomal “skipping” sequence,[32] leading to separate translation of the DCD and the target protein (Figure 1A). These constructs were then inserted into a doxycycline-inducible lentiviral vector system and stably expressed in hTERT immortalized human mammary epithelial cells (HMEC), a suitable model to assess the functional consequences of cMYC degradation. cMYC was tagged at the C-terminus end for the initial screening experiments.
(§5) Figure 1 Design and experimental evaluation of the DCD tags (A) Representation of the experimental pipeline used to evaluate the different DCD constructs. […] Median EGFP intensity was measured in each condition using flow cytometry (3 independent experiments, normalized to the control and represented as mean ± SD). […] The protein lysates were probed for cMYC levels using western blotting. […] Target loss was evaluated either by measuring EGFP median intensity using flow cytometry or western blotting for cMYC protein (3 independent experiments, normalized to the control and represented as mean ± SD). […] Target loss was evaluated as in (D) (3 independent experiments, normalized to the control and represented as mean ± SD). […] Protein lysates were collected and probed for cMYC and p21 using western blotting. […] Protein lysates were collected and probed for cMYC and p21 using western blotting. […] These were left out as controls with no test substance.
(§6) Following degrader treatment cells were collected and DAPI was added to the cell suspension at 1 μg/mL to allow the exclusion of dead cells. EGFP signal was measured using BD LSR II flow cytometer (BD Biosciences). FlowJo 10 Software (FlowJo) was used for data processing.
A general note: In flow cytometry, cells or beads pass a laser one at a time.

The test system of assay [3] is CT26 cells. In words: Quantitative multiplexed proteomics of CT26 cells treated with thalidomide derivatives. Particulars: CT26, 10uM, 24h. The class given is cell-based, mouse. As to the method: After showing that iTAG was active in mouse cells, we explored whether more potential degrons were active in the murine context. […]2216[50] and profiled the cellular proteomes using quantitative multiplexed proteomics. […] Data are plotted as Log2 fold change relative to DMSO versus Log10 of p value. (B) Proteome of CT26 CRBN KO cells treated with 10uM of FPFT2216 for 24h analyzed and plotted as in (A). (C) HEK293T, CT26, AT3 and 4434 cells treated with 10uM of FPFT2216 for 24h in presence of absence of MLN4924. […] were analyzed using western blotting. (D) Structural representation of PDE6D with the critical […] highlighted in red. (E) CT26, AT3 and 4434 cells transiently expressing WT or […] mutant Flag-PDE6D treated with 10uM of FPFT2216 for 16h. (F) Docking model for FPFT-2216 (in magenta) in the binding site of mouse CRBN (in orange). H-bond interactions are shown as cyan dashes. (G) Binding model for the ternary complex formed by mouse CRBN (in orange), mouse PDE6D (in cyan) and FPFT-2216 (in magenta), showing the […] loop close to the molecular glue. Samples for quantitative proteomics were prepared using the […] workflow.[60] Briefly, the cell pellets were lysed in a buffer containing 150 μL 0.1 M triethylammonium bicarbonate (TEAB), 1% sodium deoxycholate (SDC), 10% isopropanol, 50mM NaCl, 5 mM tris-2-carboxyethyl phosphine (TCEP), 10 mM iodoacetamide (IAA), universal nuclease, and supplemented with protease and phosphatase inhibitors. Samples were bath sonicated for 5 min, incubated at RT for 45 min and protein concentration was measured with the Bradford Protein Assay (Biorad) according to manufacturer instructions. Aliquots containing 30 μg of total protein were used for protein digestion. The resultant peptides were labeled with a tandem mass tag (TMTpro) multiplex reagent vial (Thermo Scientific) according to the manufacturer instructions. All the TMT-labelled samples were combined in equal amounts to a single tube. The TMT-peptide mixture was acidified with 1% formic acid and the precipitated SDC was removed by centrifugation. The sample was then dried with a centrifugal vacuum concentrator. LC-MS analysis was performed on the Dionex Ultimate 3000 UHPLC system coupled with the Orbitrap Lumos mass spectrometer (Thermo Scientific). Samples were analyzed with the EASY-Spray C18 capillary column (75 μm × 50 cm, 2 μm) at 50°C. […] MS3 quantification was obtained with higher-energy collisional dissociation (HCD) fragmentation of the top 5 most abundant CID fragments isolated with synchronous precursor selection (SPS). […] The SEQUEST-HT search engine was used to analyze the acquired mass spectra in Proteome Discoverer 2.4 (Thermo Scientific) for protein identification and quantification. […]

The test system of assay [4] is cMYC-EGFP-DCD23. The assay is described as follows: Degradation of cMYC-EGFP-DCD23 in HMEC (flow cytometry, western blotting). The class given is cell-based, human. Particulars: co-treatment with CC220 (10μM), 4h, western blotting.
Description: as §4, §5, §6
Cells were lysed with SDS lysis buffer (2% SDS, 10% Glycerol, 50mM Tris pH 6.8) and boiled at 95°C for 30min. Protein concentration was measured using Pierce BCA Protein Assay Kit (ThermoFischer) following manufacturer’s recommendations. Samples were ran in NuPAGETM 10% Bis-Tris Midi electrophoresis gels (Invitrogen) using NuPAGETM MES SDS running buffer (ThermoFischer Scientific).
as §3

The subject of assay [5] is N-terminally tagged EGFP. The assay is described as follows: Flow cytometry of N-terminally tagged EGFP in SUM159 (iTAG, SD, dTAG). The class given is cell-based, human. Particulars: SUM159, 4h, normalized values; dTAG-13 for FKBP12 F36V, CC220 for SD and iTAG. As to the method:
as §1
As we were finalizing our study on iTAG, a similar IMiD based degron was publish by the Ebert group.[28] The SuperDegron (SD) a 60 amino acid tag based on a chimera of Aiolos/ZFP91 was used to generate degradable chimeric antigen receptors (CAR).[28]
as §2

On to `CC[C@H](C(=O)N1CCCC[C@H]1C(=O)O[C@H](CCc1ccc(OC)c(OC)c1)c1ccccc1OCC(=O)NCCCCCCC(=O)N[C@H](C(=O)N1C[C@H](O)C[C@H]1C(=O)N[C@@H](C)c1ccc(-c2scnc2C)cc1)C(C)(C)C)c1cc(OC)c(OC)c(OC)c1` [dTAG^V-1], for which the “degradation compared between dTAG variants” value in assay [1] (SUM159, BRD4, cMYC, RBM39, 4h) is reported as “more robust degradation compared to dTAG-13”. As for `O=C1CCC(N2C(=O)c3ccccc3C2=O)C(=O)N1` (stereo not drawn) [Thalidomide], the “loss of cMYC-EGFP signal” value in assay [2] is given as “robust loss of cMYC-EGFP signal”. As for `O=C1CCC(N2C(=O)c3ccc(NS(=O)(=O)c4ccccc4OC(F)(F)F)cc3C2=O)C(=O)N1` (stereo not drawn) [StJude6989], in assay [3], the “effect on cellular proteome” value is “no impact”. Consider `Nc1cccc2c1C(=O)N(C1CCC(=O)NC1=O)C2=O` (stereo not drawn) [Pomalidomide], for which the “loss of cMYC-EGFP signal” value in assay [2] is reported as “robust loss of cMYC-EGFP signal”. With `CC(C)C[C@@H](C=O)NC(=O)[C@H](CC(C)C)NC(=O)[C@H](CC(C)C)NC(=O)OCc1ccccc1` [MG132] (Cbz-Leu-Leu-Leu-aldehyde), in assay [4], the “effect on CC220-induced cMYC degradation” value is on record as “inhibited cMYC degradation”. The same measure, in the same setting: the result for `NS(=O)(=O)OC[C@@H]1C[C@@H](n2ccc3c(N[C@H]4CCc5ccccc54)ncnc32)C[C@@H]1O` [MLN4924] reads “inhibited cMYC degradation”. For `CC[C@H](C(=O)N1CCCC[C@H]1C(=O)O[C@H](CCc1ccc(OC)c(OC)c1)c1ccccc1OCC(=O)NCCCCCCOc1cccc2c1C(=O)N(C1CCC(=O)NC1=O)C2=O)c1cc(OC)c(OC)c(OC)c1` (stereo partly drawn) [dTAG-13], the “concentrations at which targets are degraded” value in assay [1] (SUM159, dTAG-13 on dTAG, CC220 on iTAG) is recorded as “less pronounced or even not observed at high concentrations”. Besides, the “time of onset of degradation of cMYC and RBM39” value in assay [1] (SUM159, dTAG-13 on dTAG, CC220 on iTAG, 1, 2 or 4h) is “moderate degradation only after 4h”.

In the case of `O=C1CCC(N2Cc3cc(CNC(=O)C(F)(F)c4ccc(Cl)cc4)ccc3C2=O)C(=O)N1` (stereo not drawn) [CC90009], the “effect on cellular proteome” value in assay [3] is given as “no impact”.

In assay [5], “FKBP12^[F36V]: mutant FKBP12 protein tag of the dTAG system, degraded with dTAG-13” displayed a DC50 of 0.38 nM and a DCmax of 95%. Take `Cc1nc2cccc(N)c2c(=O)n1C1CCC(=O)NC1=O` (stereo not drawn) [CC122, Avadomide]: in assay [2], the “loss of cMYC-EGFP signal” value is on record as “robust loss of cMYC-EGFP signal”.
